Type in all cases: cell-based
For one assay, the system named is AM-38. The assay is described as follows: Cell viability (CellTiter-Glo), AM-38. As to conditions: Homo sapiens; AM-38 cell line, 3-4 days of culture. On the procedure:
(§1) Cell viability was detected using the Promega CellTiter-Glo kit, the kit reflected cell viability by directly measuring intracellular ATP content. The inhibitory effect (IC50 value) of Gboxin, a mitochondrial oxidative phosphorylation pathway inhibitor, on different tumor cell lines was tested in the Example. The name, source, and culture condition of each tumor cell line were as follows:
Cell line AM-38 (JCRB, No. IF050492) was cultured in EMEM medium containing 20% heat-inactivated fetal bovine serum (+P/S).
(§2) The above tumor cells were cultured in the relevant medium (+P/S), and incubated for 3 h, then the gradient diluted Gboxin was added, and IC50 (50% inhibiting concentration) was measured after 3-4 days of culture.

The test system of a further assay is U-87 MG. The assay is described as follows: Cell viability (CellTiter-Glo), U-87 MG. The conditions noted are these: Homo sapiens; U-87 MG cell line, 3-4 days of culture. On the procedure: as §1
Cell line U-87 MG (ATCC, No. HTB-14) was cultured in 10% fetal bovine serum-containing EMEM medium (+P/S).
as §2

Another assay concerns SU-DHL-2. The experiment in a line: Cell viability (CellTiter-Glo), SU-DHL-2. The conditions noted are these: Homo sapiens; SU-DHL-2 cell line, 3-4 days of culture. As to the method:
as §1
Cell line SU-DHL-2 (ATCC, No. CRL-2956) was cultured in 10% fetal bovine serum-containing RPMI1640 medium (+P/S).
as §2

Another assay relates to DU 145. The experiment in a line: Cell viability (CellTiter-Glo), DU 145. As to conditions: Homo sapiens; DU 145 cell line, 3-4 days of culture. As to the method:
as §1
Cell line DU 145 (ATCC, No. HTB-81) was cultured in 10% fetal bovine serum-containing EMEM medium (+P/S).
as §2

The next assay relates to CHL-1. The experiment in a line: Cell viability (CellTiter-Glo), CHL-1. As to conditions: Homo sapiens; CHL-1 cell line, 3-4 days of culture. As to the method:
as §1
Cell line CHL-1 (ATCC, No. CRL-9446) was cultured in 10% fetal bovine serum-containing DMEM medium (+P/S).
as §2

The next assay concerns Jurkat, Clone E6-1. The experiment in a line: Cell viability (CellTiter-Glo), Jurkat, Clone E6-1. As to conditions: Homo sapiens, Clone E6-1 cell line, 3-4 days of culture. On the procedure: as §1
Cell line Jurkat, Clone E6-1 (ATCC, No. TIB-152) was cultured in 10% fetal bovine serum-containing RPMI1640 medium (+P/S).
as §2

The structures appear in SMILES notation.

With `CCc1n(CC(=O)O[C@@H]2C[C@H](C)CC[C@H]2C(C)C)c2ccccc2[n+]1C.[Cl-]` [Gboxin], the IC50 stood at 10.3 µM in the assay with AM-38; 12.3 µM with U-87 MG; 0.97 µM with SU-DHL-2; 9.91 µM in the assay on DU 145; 7.68 µM with CHL-1; 3.51 µM in the assay on Jurkat, Clone E6-1.

The record behind these values is patent US20230355647A1, “Marker for determining anti-cancer effects of mitochondrial oxidative phosphorylation pathway inhibitor” (NANJING SHIJIANG MEDICINE TECHNOLOGY CO., LTD, priority 2020, published 2023).
